According to US20090118274A1, “MONOCYCLIC AMINOPROPYL TETRAHYDRO-PYRAZOLO-PYRIDINE MODULATORS OF CATHEPSIN S” (priority 2007, published 2009):

These molecules were tested against T1, Recombinant human cathepsin S (CatS) (Homo sapiens, UniProt P25774) (assay: Recombinant human cathepsin S (CatS) fluorogenic substrate inhibition assay). Details: not given.
T1 construct: made in house
Format: biochemical
Description: Recombinant human cathepsin S (CatS) was expressed in the baculovirus system and purified in one step with a thiopropyl-sepharose column. […] The assay is run in 150 mM sodium acetate pH 5.0 containing 1.5 mM DTT and 150 mM NaCl. […] Measurements are taken every min for 20 min. The rate is calculated from the slope of the increase in fluorescence and the percent inhibition is calculated from this.

T1 sequence (P25774 115-331): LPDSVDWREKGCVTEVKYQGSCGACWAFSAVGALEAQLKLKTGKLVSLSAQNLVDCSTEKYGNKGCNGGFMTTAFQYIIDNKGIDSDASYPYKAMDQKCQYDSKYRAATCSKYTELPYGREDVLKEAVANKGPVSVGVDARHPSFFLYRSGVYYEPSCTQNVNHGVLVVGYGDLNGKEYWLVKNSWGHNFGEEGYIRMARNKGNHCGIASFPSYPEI

Question: Which IC50 does the source give for `CC(=O)NCC1CCN(CC(O)Cn2nc(-c3ccc(C(F)(F)F)c(CNC(=O)C=C(C)C)c3)c3c2CCN(S(C)(=O)=O)C3)CC1` (centres unmarked) [Example 267, 3-Methyl-but-2-enoic acid 5-(1-{3-[4-(acetylamino-methyl)-piperidin-1-yl]-2-hydroxy-propyl}-5-methanesulfonyl-4,5,6,7-tetrahydro-1H-pyrazolo[4,3-c]pyridin-3-yl)-2-trifluoromethyl-benzylamide] here?
Answer: 80 nM

Question: With `CS(=O)(=O)N1CCc2c(c(-c3ccc(C(F)(F)F)c(CNC(=O)Oc4ccccc4)c3)nn2CC(O)CN2CCC3(CCNC3=O)CC2)C1` (centres unmarked) [Example 149, (5-{1-[2-Hydroxy-3-(1-oxo-2,8-diaza-spiro[4.5]dec-8-yl)-propyl]-5-methanesulfonyl-4,5,6,7-tetrahydro-1H-pyrazolo[4,3-c]pyridin-3-yl}-2-trifluoromethyl-benzyl)-carbamic acid phenyl ester] as the molecule, how does the IC50 read?
Answer: 220 nM

Question: `CN1CCN(CC(O)Cn2nc(-c3ccc(C(F)(F)F)c(CNC(=O)c4ccc(F)cc4)c3)c3c2CCN(S(C)(=O)=O)C3)CC1` (centres unmarked) [Example 227, 4-Fluoro-N-(5-{1-[2-hydroxy-3-(4-methyl-piperazin-1-yl)-propyl]-5-methanesulfonyl-4,5,6,7-tetrahydro-1H-pyrazolo[4,3-c]pyridin-3-yl}-2-trifluoromethyl-benzyl)-benzamide] was tested. Which IC50 did it give?
Answer: 760 nM

Same assay, conditions: average of results obtained; substrate Z-Valine-Valine-Arginine-AMC 10 μM, pH 5.0; read-out: CatS IC50

Question: With `CS(=O)(=O)N1CCc2c(c(-c3ccc(C(F)(F)F)c(CNC(=O)C4CCCCCC4)c3)nn2CC(O)CN2CCC3(CCNC3=O)CC2)C1` (centres unmarked) [Example 167, Cycloheptanecarboxylic acid 5-{1-[2-hydroxy-3-(1-oxo-2,8-diaza-spiro[4.5]dec-8-yl)-propyl]-5-methanesulfonyl-4,5,6,7-tetrahydro-1H-pyrazolo[4,3-c]pyridin-3-yl}-2-trifluoromethyl-benzylamide] as the molecule, how does the IC50 read?
Answer: 490 nM

Question: For `CS(=O)(=O)N1CCc2c(c(-c3ccc(Cl)c(CNC(=O)c4ccncc4)c3)nn2CCCN2CCCC2)C1` [Example 235, N-{2-Chloro-5-[5-methanesulfonyl-1-(3-pyrrolidin-1-yl-propyl)-4,5,6,7-tetrahydro-1H-pyrazolo[4,3-c]pyridin-3-yl]-benzyl}-isonicotinamide], which IC50 is on record?
Answer: 890 nM

Question: How did the IC50 turn out when `Cc1ccc(C(=O)NCc2cc(-c3nn(CCCN4CCCC4)c4c3CN(S(C)(=O)=O)CC4)ccc2Cl)cc1` [Example 88, N-{2-Chloro-5-[5-methanesulfonyl-1-(3-pyrrolidin-1-yl-propyl)-4,5,6,7-tetrahydro-1H-pyrazolo[4,3-c]pyridin-3-yl]-benzyl}-4-methyl-benzamide] was run?
Answer: 740 nM

Question: `CS(=O)(=O)N1CCc2c(c(-c3ccc(Cl)c(CNC(=O)c4ccc(F)cc4)c3)nn2CC(O)CN2CCC(N)CC2)C1` (centres unmarked) [Example 83, N-(5-{1-[3-(4-Amino-piperidin-1-yl)-2-hydroxy-propyl]-5-methanesulfonyl-4,5,6,7-tetrahydro-1H-pyrazolo[4,3-c]pyridin-3-yl}-2-chloro-benzyl)-4-fluoro-benzamide] was tested. Which IC50 did it give?
Answer: 270 nM

Question: How did the IC50 turn out when `CC(=O)NC1CCN(CC(Cn2nc(-c3ccc(Cl)c(CNC(=O)c4ccc(F)cc4)c3)c3c2CCN(S(C)(=O)=O)C3)OC(C)=O)CC1` (centres unmarked) [Example 80, Acetic acid 1-(4-acetylamino-piperidin-1-ylmethyl)-2-(3-{4-chloro-3-[(4-fluoro-benzoylamino)-methyl]-phenyl}-5-methanesulfonyl-4,5,6,7-tetrahydro-pyrazolo[4,3-c]pyridin-1-yl)-ethyl ester] was run?
Answer: 100 nM

Question: How did the IC50 turn out when `COC1CCC(C(=O)NCc2cc(-c3nn(CC(O)CN4CCCC4)c4c3CN(S(C)(=O)=O)CC4)ccc2C(F)(F)F)CC1` (centres unmarked) [Example 186, 4-Methoxy-cyclohexanecarboxylic acid 5-[1-(2-hydroxy-3-pyrrolidin-1-yl-propyl)-5-methanesulfonyl-4,5,6,7-tetrahydro-1H-pyrazolo[4,3-c]pyridin-3-yl]-2-trifluoromethyl-benzylamide] was run?
Answer: 3100 nM

Question: `CS(=O)(=O)N1CCc2c(c(-c3ccc(C(F)(F)F)c(CNC(=O)c4ccc(F)cc4)c3)nn2CC(O)CN2CCC(C(=O)O)CC2)C1` (centres unmarked) [Example 90, 1-[3-(3-{3-[(4-Fluoro-benzoylamino)-methyl]-4-trifluoromethyl-phenyl}-5-methanesulfonyl-4,5,6,7-tetrahydro-pyrazolo[4,3-c]pyridin-1-yl)-2-hydroxy-propyl]-piperidine-4-carboxylic acid] was tested. Which IC50 did it give?
Answer: 150 nM

Question: For `CS(=O)(=O)N1CCc2c(c(-c3ccc(C(F)(F)F)c(C(=O)Nc4ccccc4)c3)nn2CC(O)CN2CCCC2)C1` (centres unmarked) [Example 192, 5-[1-(2-Hydroxy-3-pyrrolidin-1-yl-propyl)-5-methanesulfonyl-4,5,6,7-tetrahydro-1H-pyrazolo[4,3-c]pyridin-3-yl]-N-phenyl-2-trifluoromethyl-benzamide], which IC50 is on record?
Answer: 1600 nM

Question: Which IC50 does the source give for `CC(C)CC(=O)NCc1cc(-c2nn(CC(O)CN3CCC(C(C)(C)C)CC3)c3c2CN(S(C)(=O)=O)CC3)ccc1C(F)(F)F` (centres unmarked) [Example 289, N-(5-{1-[3-(4-tert-Butyl-piperidin-1-yl)-2-hydroxy-propyl]-5-methanesulfonyl-4,5,6,7-tetrahydro-1H-pyrazolo[4,3-c]pyridin-3-yl}-2-trifluoromethyl-benzyl)-3-methyl-butyramide] here?
Answer: 90 nM

Question: For `CS(=O)(=O)N1CCc2c(c(-c3ccc(C(F)(F)F)c(CNC(=O)c4ccccc4F)c3)nn2CC(O)CN2CCCC2)C1` (centres unmarked) [Example 161, 2-Fluoro-N-{5-[1-(2-hydroxy-3-pyrrolidin-1-yl-propyl)-5-methanesulfonyl-4,5,6,7-tetrahydro-1H-pyrazolo[4,3-c]pyridin-3-yl]-2-trifluoromethyl-benzyl}-benzamide], which IC50 is on record?
Answer: 370 nM

Question: Which IC50 does the source give for `CS(=O)(=O)N1CCc2c(c(-c3ccc(C(F)(F)F)c(CNC(=O)c4ccc(F)cc4)c3)nn2CC(O)CN2CCC(O)CC2)C1` (centres unmarked) [Example 25, 4-Fluoro-N-(5-{1-[2-hydroxy-3-(4-hydroxy-piperidin-1-yl)-propyl]-5-methanesulfonyl-4,5,6,7-tetrahydro-1H-pyrazolo[4,3-c]pyridin-3-yl}-2-trifluoromethyl-benzyl)-benzamide] here?
Answer: 170 nM

Question: Which IC50 does the source give for `CC(C)N1CCN(CC(O)Cn2nc(-c3ccc(C(F)(F)F)c(CNC(=O)c4ccc(F)cc4)c3)c3c2CCN(S(C)(=O)=O)C3)CC1` (centres unmarked) [Example 20, 4-Fluoro-N-(5-{1-[2-hydroxy-3-(4-isopropyl-piperazin-1-yl)-propyl]-5-methanesulfonyl-4,5,6,7-tetrahydro-1H-pyrazolo[4,3-c]pyridin-3-yl}-2-trifluoromethyl-benzyl)-benzamide] here?
Answer: 400 nM

Question: `CS(=O)(=O)N1CCc2c(c(-c3ccc(C(F)(F)F)c(CNC(=O)c4cccc(O)c4)c3)nn2CC(O)CN2CCCC2)C1` (centres unmarked) [Example 58, 3-Hydroxy-N-{5-[1-(2-hydroxy-3-pyrrolidin-1-yl-propyl)-5-methanesulfonyl-4,5,6,7-tetrahydro-1H-pyrazolo[4,3-c]pyridin-3-yl]-2-trifluoromethyl-benzyl}-benzamide] was tested. Which IC50 did it give?
Answer: 420 nM

Question: For `CS(=O)(=O)N1CCc2c(c(-c3ccc(Cl)c(COCc4ccc(F)cc4)c3)nn2CCCN2CCCC2)C1` [Example 4, 3-[4-Chloro-3-(4-fluoro-benzyloxymethyl)-phenyl]-5-methanesulfonyl-1-(3-pyrrolidin-1-yl-propyl)-4,5,6,7-tetrahydro-1H-pyrazolo[4,3-c]pyridine], which IC50 is on record?
Answer: 1450 nM

Question: For `CS(=O)(=O)N1CCc2c(c(-c3ccc(C(F)(F)F)c(CNC(=O)c4ccc(F)cc4)c3)nn2CC(O)CN2CCNCC2)C1` (centres unmarked) [Example 236, 4-Fluoro-N-{5-[1-(2-hydroxy-3-piperazin-1-yl-propyl)-5-methanesulfonyl-4,5,6,7-tetrahydro-1H-pyrazolo[4,3-c]pyridin-3-yl]-2-trifluoromethyl-benzyl}-benzamide], which IC50 is on record?
Answer: 900 nM

Question: `CNC(=O)NC1CCN(CC(O)Cn2nc(-c3ccc(Cl)c(CNC(=O)c4ccc(F)cc4)c3)c3c2CCN(S(C)(=O)=O)C3)CC1` (centres unmarked) [Example 77, N-[2-Chloro-5-(1-{2-hydroxy-3-[4-(3-methyl-ureido)-piperidin-1-yl]-propyl}-5-methanesulfonyl-4,5,6,7-tetrahydro-1H-pyrazolo[4,3-c]pyridin-3-yl)-benzyl]-4-fluoro-benzamide] was tested. Which IC50 did it give?
Answer: 30 nM

Question: Which IC50 does the source give for `CCOC(=O)NC1CCN(CC(O)Cn2nc(-c3ccc(C(F)(F)F)c(CNC(=O)CC(C)C)c3)c3c2CCN(S(C)(=O)=O)C3)CC1` (centres unmarked) [Example 155, {1-[2-Hydroxy-3-(5-methanesulfonyl-3-{3-[(3-methyl-butyrylamino)-methyl]-4-trifluoromethyl-phenyl}-4,5,6,7-tetrahydro-pyrazolo[4,3-c]pyridin-1-yl)-propyl]-piperidin-4-yl}-carbamic acid ethyl ester] here?
Answer: 50 nM

Question: With `CN(C)C1CCN(CC(O)Cn2nc(-c3ccc(C(F)(F)F)c(CNC(=O)c4ccc(F)cc4)c3)c3c2CCN(S(C)(=O)=O)C3)C1` (centres unmarked) [Example 26, N-(5-{1-[3-(3-Dimethylamino-pyrrolidin-1-yl)-2-hydroxy-propyl]-5-methanesulfonyl-4,5,6,7-tetrahydro-1H-pyrazolo[4,3-c]pyridin-3-yl}-2-trifluoromethyl-benzyl)-4-fluoro-benzamide] as the molecule, how does the IC50 read?
Answer: 360 nM

Question: For `CS(=O)(=O)N1CCc2c(c(-c3ccc(Cl)c(CNC(=O)c4ccc(Cl)cc4)c3)nn2CCCN2CCCC2)C1` [Example 86, 4-Chloro-N-{2-chloro-5-[5-methanesulfonyl-1-(3-pyrrolidin-1-yl-propyl)-4,5,6,7-tetrahydro-1H-pyrazolo[4,3-c]pyridin-3-yl]-benzyl}-benzamide], which IC50 is on record?
Answer: 960 nM

Question: `CS(=O)(=O)N1CCc2c(c(-c3ccc(C(F)(F)F)c(CNC(=O)c4ccc5ccccc5c4)c3)nn2CC(O)CN2CCCC2)C1` (centres unmarked) [Example 64, Naphthalene-2-carboxylic acid 5-[1-(2-hydroxy-3-pyrrolidin-1-yl-propyl)-5-methanesulfonyl-4,5,6,7-tetrahydro-1H-pyrazolo[4,3-c]pyridin-3-yl]-2-trifluoromethyl-benzylamide] was tested. Which IC50 did it give?
Answer: 370 nM
